Measurements: US12540148B2, “Lipophosphonoxins, their preparation and use” (USTAV ORGANICKE CHEMIE A BIOCHEMIE AV CR, V. V. I., priority 2019, dated 2026)
In brackets after ≈: the same amount, converted by molar mass. Counter-ions that a name gives are not always drawn. Like-named read-outs stand apart in the source and are kept apart here.

How the values were obtained:
Assay in all cases: MIC, microdilution method
Assay type in all cases: cell-based
[1] = tested on: Escherichia coli ATCC 25922 = CCM 3954
Method: (§1) Disposable microtiter plates are used for testing. Samples are dissolved in infusion medium from brain and heart (BHI, HiMedia Laboraties Pvt. Ltd., Czech Republic) and Mueller-Hinton broth (HiMedia Laboraties, see above) to a final concentration ranging from 200 μg/ml to 1.5625 μg/ml. Plates are inoculated with a standard amount of test bacteria—the density of the inoculum in the well corresponds to 10^5-6 CFU/ml (colony forming units/ml, i.e. the number of viable bacterial cells/ml). MIC values are read after 24/48 hours of incubation at 37° C. as the minimum inhibitory concentration of the test substance at which bacterial growth is inhibited. The minimum bactericidal concentration (MBC) is characterized as the minimum concentration of the sample required to achieve irreversible inhibition, i.e. to kill the bacteria after a defined incubation period. MBC is determined by the inoculation method. Using an applicator, 10 μl from the well of a microtiter plate with a defined concentration of the test substance is taken to inoculate the surface of blood agar (Trios, Czech Republic). MBC is determined as the lowest concentration that inhibits the visible growth of the bacterium used on agar.

[2] = tested on: Staphylococcus aureus ATCC 29213 = CCM 4223
Method: as §1

[3] = tested on: Candida albicans ATCC 90028 = CCM 8161
[4] = tested on: Staphylococcus epidermidis CCM 7221
Method: as §1

[5] = tested on: Enterococcus faecalis ATCC 29212 = CCM 4224
Method: as §1

Enterobacter kobei 3683 = tested on: Enterobacter kobei 3683
Method: as §1

[6] = tested on: Pseudomonas aeruginosa ATCC 27853 = CCM 3955
Method: as §1

[7] = tested on: Enterococcus faecium 419/ANA
Method: as §1

Escherichia coli CE5556 = tested on: Escherichia coli CE5556
Method: as §1

Pseudomonas aeruginosa R = tested on: Pseudomonas aeruginosa R
Method: as §1

[8] = tested on: Staphylococcus aureus 4591
Method: as §1

[9] = Candida albicans, 24/48 hours at 37° C., read-out: MIC
[10] = Escherichia coli, 24/48 hours at 37° C., read-out: MIC
[11] = Staphylococcus epidermidis, CCM7221, 24/48 hours at 37° C., read-out: MIC
[12] = Enterococcus faecalis, 24/48 hours at 37° C., read-out: MIC
[13] = Enterobacter kobei, 3683, 24/48 hours at 37° C., read-out: MIC
[14] = Staphylococcus aureus, 24/48 hours at 37° C., read-out: MIC
[15] = Pseudomonas aeruginosa, 24/48 hours at 37° C., read-out: MIC
[16] = Enterococcus faecium, 419/ANA, 24/48 hours at 37° C., read-out: MIC
[17] = Escherichia coli, CE5556, 24/48 hours at 37° C., read-out: MIC
[18] = Staphylococcus aureus, 4591, 24/48 hours at 37° C., read-out: MIC
[19] = Escherichia coli, 24/48 hours at 37° C.
[20] = Staphylococcus epidermidis, CCM7221

Compound	MIC ([3]; Candida albicans) [µg/mL]	MIC [1, 19] [µg/mL]	MIC [4, 20] [µg/mL]	MIC ([5]; Enterococcus faecalis) [µg/mL]	MIC (Enterobacter kobei 3683; Enterobacter kobei, 3683) [µg/mL]	MIC ([2]; Staphylococcus aureus) [µg/mL]	MIC ([6]; Pseudomonas aeruginosa) [µg/mL]	MIC ([7]; Enterococcus faecium, 419/ANA) [µg/mL]	MIC (Escherichia coli CE5556; Escherichia coli, CE5556) [µg/mL]	MIC (Pseudomonas aeruginosa R; Pseudomonas aeruginosa) [µg/mL]	MIC ([8]; Staphylococcus aureus, 4591) [µg/mL]	other results
CCCCCCCCCCCCCCOP(=O)(CCN(CCCNC(=N)N)CCCNC(=N)N)OC[C@H]1O[C@@H](n2ccc(=O)[nH]c2=O)C(O)C1O (some centres unmarked) [DR7030, reference compound]												MIC ([1]; Escherichia coli, 0% BSA, read-out: MIC): 2 µg/mL (≈ 2.68 µM); MIC ([1]; Escherichia coli, 4% BSA, read-out: MIC): > 200 µg/mL; MIC ([2]; Staphylococcus aureus, 0% BSA, read-out: MIC): 2 µg/mL (≈ 2.68 µM); MIC ([2]; Staphylococcus aureus, 4% BSA, read-out: MIC): > 200 µg/mL
C=CP(=O)(OCCCCCCCCCCCCOP(=O)(C=C)OCC(C)C)OCC(C)C (centres unmarked) [Example 34, Diisobutyl dodecane-1,12-diyl bis(vinylphosphonate)]												MIC [3, 9]: 128 µg/mL (≈ 259 µM); MIC [1, 10]: 32 µg/mL (≈ 64.7 µM); MIC [4, 11]: 4 µg/mL (≈ 8.09 µM); MIC [5, 12]: 128 µg/mL (≈ 259 µM); MIC (Enterobacter kobei 3683; [13]): > 128 µg/mL; MIC [2, 14]: 8 µg/mL (≈ 16.2 µM); MIC [6, 15]: > 128 µg/mL; MIC [7, 16]: > 128 µg/mL; MIC (Escherichia coli CE5556; [17]): 128 µg/mL (≈ 259 µM); MIC (Pseudomonas aeruginosa R; [15]): > 128 µg/mL; MIC [8, 18]: 16 µg/mL (≈ 32.4 µM)
CCCCCOP(=O)(CCN(CCCN)CCCN)OCCCCCCCCOP(=O)(CCN(CCCN)CCCN)OCCCCC.Cl.Cl.Cl.Cl.Cl.Cl (centres unmarked) [Example 37, Octane-1,8-diyl dipentyl bis((2-(bis(3-aminopropyl)amino)-ethyl)phosphonate) hexahydrochloride]	32	2	0.5	16	> 128	1	16	> 128	8	64	2	MIC ([1]; Escherichia coli, 0% BSA): 2 µg/mL; MIC ([1]; Escherichia coli, 4% BSA): 4 µg/mL; MIC ([2]; 4% BSA): 1 µg/mL; MIC ([2]; 24/48 hours at 37° C.): 1 µg/mL
C=CP(=O)(OCCCCCCCCCCOP(=O)(C=C)OCC(C)C)OCC(C)C (centres unmarked) [Example 39, Decane-1,10-diyl diisobutyl bis(vinylphosphonate)]												MIC [3, 9]: > 128 µg/mL; MIC [1, 10]: 128 µg/mL (≈ 274 µM); MIC [4, 11]: 8 µg/mL (≈ 17.1 µM); MIC [5, 12]: 64 µg/mL (≈ 137 µM); MIC (Enterobacter kobei 3683; [13]): > 128 µg/mL; MIC [2, 14]: 32 µg/mL (≈ 68.6 µM); MIC [6, 15]: 128 µg/mL (≈ 274 µM); MIC [7, 16]: 128 µg/mL (≈ 274 µM); MIC (Escherichia coli CE5556; [17]): 128 µg/mL (≈ 274 µM); MIC (Pseudomonas aeruginosa R; [15]): 64 µg/mL (≈ 137 µM); MIC [8, 18]: 16 µg/mL (≈ 34.3 µM)
CCCCOP(=O)(CCN(CCCN)CCCN)OCCCCCCCCCCOP(=O)(CCN(CCCN)CCCN)OCCCC.Cl.Cl.Cl.Cl.Cl.Cl (centres unmarked) [Example 41, Dibutyl decane-1,10-diyl bis((2-(bis(3-aminopropyl)amino)ethyl)phosphonate) hexahydrochloride]	64	64	1	32	> 128	2	16	128	128	8	2	
CCCCCOP(=O)(CCN(CCCN)CCCN)OCCCCCCCCCCOP(=O)(CCN(CCCN)CCCN)OCCCCC.Cl.Cl.Cl.Cl.Cl.Cl (centres unmarked) [Example 42, Decane-1,10-diyl dipentyl bis((2-(bis(3-aminopropyl)amino)-ethyl)phosphonate) hexahydrochloride]	16	2	0.5	4	64	0.5	4	32	8	8	1	
CCCCCCOP(=O)(CCN(CCCN)CCCN)OCCCCCCCCCCOP(=O)(CCN(CCCN)CCCN)OCCCCCC.Cl.Cl.Cl.Cl (centres unmarked) [Example 43, Decane-1,10-diyl dihexyl bis((2-(bis(3-aminopropyl)amino)-ethyl)phosphonate) tetrahydrochloride]	1	0.5	0.5	0.5	1	0.5	1	1	1	1	0.5	
CCCCCCCCCCOP(=O)(CCN(CCCN)CCCN)OCCCCCCCCCCOP(=O)(CCN(CCCN)CCCN)OCCCCCCCCCC (centres unmarked) [Example 45, Decan-1,10-diyl didecyl bis((2-(bis(3-aminopropyl)amino)ethyl)-phosphonate) tetrahydrochloride]	64		1	32	> 128	4	32	128	> 128	16	4	MIC ([1]; Escherichia coli): > 128 µg/mL
CCCCOP(=O)(CCN(CCCN)CCCN)OCCCCCCCCCCCCCCOP(=O)(CCN(CCCN)CCCN)OCCCC.Cl.Cl.Cl.Cl.Cl.Cl (centres unmarked) [Example 52, Dibutyl tetradecane-1,14-diyl bis((2-(bis(3-aminopropyl)amino)ethyl)phosphonate) hexahydrochloride]	4	2	0.5	1	8	1	4	2	2	2	1	
CCCCCOP(=O)(CCN(CCCN)CCCN)OCCCCCCCCCCCCCCOP(=O)(CCN(CCCN)CCCN)OCCCCC.Cl.Cl.Cl.Cl.Cl.Cl (centres unmarked) [Example 53, Tetradecane-1,14-diyl dipentyl bis((2-(bis(3-aminopropyl)amino)ethyl)-phosphonate) hexahydrochloride]	2	1	0.5	1	2	0.5	2	2	1	4	1	
CCCCOP(=O)(CCN(CCN)CCN)OCCCCCCCCCCOP(=O)(CCN(CCN)CCN)OCCCC.Cl.Cl.Cl.Cl.Cl.Cl (centres unmarked) [Example 56, Dibutyl decane-1,10-diyl bis((2-(bis(2-aminoethyl)amino)ethyl)phosphonate) hexahydrochloride]	4	4	4	2	16	2	4	4	4	8	4	
Hexan-1,8-diyl dihexyl bis((2-(bis(3-aminopropyl)amino)ethyl)phosphonate) hexahydrochloride [Example 35]												MIC ([3]; 24/48 hours at 37° C.): 16 µg/mL; MIC ([1]; 24/48 hours at 37° C.): 0.5 µg/mL; MIC ([4]; 24/48 hours at 37° C.): 0.5 µg/mL; MIC ([5]; 24/48 hours at 37° C.): 1 µg/mL; MIC (Enterobacter kobei 3683; 24/48 hours at 37° C.): 2 µg/mL; MIC ([2]; 24/48 hours at 37° C.): 0.5 µg/mL; MIC ([6]; 24/48 hours at 37° C.): 2 µg/mL; MIC ([7]; 24/48 hours at 37° C.): 8 µg/mL; MIC (Escherichia coli CE5556; 24/48 hours at 37° C.): 1 µg/mL; MIC (Pseudomonas aeruginosa R; 24/48 hours at 37° C.): 2 µg/mL; MIC ([8]; 24/48 hours at 37° C.): 1 µg/mL
Hexan-1,8-diyl dioctyl bis((2-(bis(3-aminopropyl)amino)ethyl)phosphonate) hexahydrochloride [Example 36]												MIC ([3]; 24/48 hours at 37° C.): 128 µg/mL; MIC ([1]; 24/48 hours at 37° C.): 128 µg/mL; MIC ([4]; 24/48 hours at 37° C.): 4 µg/mL; MIC ([5]; 24/48 hours at 37° C.): >128 µg/mL; MIC (Enterobacter kobei 3683; 24/48 hours at 37° C.): >128 µg/mL; MIC ([2]; 24/48 hours at 37° C.): 16 µg/mL; MIC ([6]; 24/48 hours at 37° C.): >128 µg/mL; MIC ([7]; 24/48 hours at 37° C.): >128 µg/mL; MIC (Escherichia coli CE5556; 24/48 hours at 37° C.): >128 µg/mL; MIC (Pseudomonas aeruginosa R; 24/48 hours at 37° C.): 128 µg/mL; MIC ([8]; 24/48 hours at 37° C.): 8 µg/mL
